Results taken from patent publication US6194422A, “Anthracycline derivatives” (Pharmacia & Upjohn SpA, priority 1997, dated 2001).

What follows are compounds tested against Aβ1-40 peptide monomer (Homo sapiens, UniProt P05067). Conditions: 50 μM test compound, 20 μM Aβ1-40 monomer, 4 μM pre-formed sonicated Aβ1-40 fibrils, pH 7.4, two hours at 37° C., HPLC.
Type: biochemical
Procedure: The activity of the disclosed compounds is assessed according to the procedure reported below. An Aβ1-40 peptide monomer stock solution is prepared by dissolving the peptide in dimethylsulfoxide at a concentration of 33.33 mg/mL. The stock solution is further diluted 1 to 11.5 with dimethylsulfoxide. This solution is then diluted with 10 mM phosphate buffer pH 7.4 containing 150 mM sodium chloride to prepare the test solution. To an eppendorf tube containing 47 μL of Aβ1-40 peptide monomer solution are added 3 μL of a 830 μM water solution of the test compound containing 66.4 μM, based on the Aβ1 -40 monomer content, of pre-formed sonicated Aβ1-40 fibrils: the resulting solution is 20 μM in Aβ1-40 monomer, 50 μM in the test compound and contains 4 μM, based on the Aβ1-40 monomer content, of pre-formed sonicated Aβ1-40 fibrils. The aggregation is allowed to proceed for two hours at 37° C. The suspension is then centrifuged at 15000 rpm for 15 minutes at +4° C., the supernatant is collected and the Aβ1 -40 monomer is quantitated by HPLC. The activity is expressed as the percent of inhibition of the aggregation of a 20 μM Aβ1-40 monomer solution stimulated by 4 μM, based on the Aμ1-40 monomer content, pre-formed sonicated Aμ1-40 fibrils.

Aβ1-40 peptide monomer, sequence (P05067 672-711 limits assumed): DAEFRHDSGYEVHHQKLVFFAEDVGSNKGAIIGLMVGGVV

SMILES | % inhibition (of the aggregation of Aβ1-40 monomer)
COc1cccc2c1C(=O)c1c(O)c3c(c(O)c1C2=O)CC1(C)C(=NOCc2ccccc2)CC3N1Cc1ccncc1 (stereo not drawn) [Compound 1q, 8-N-(4-pyridylmethyl)anthrazalone O-benzyloxime] | 24.2%
CON=C1CC2c3c(O)c4c(c(O)c3CC1(C)N2Cc1ccncc1)C(=O)c1cccc(OC)c1C4=O (stereo not drawn) [Compound 1p, 8-N-(4-pyridylmethyl)anthrazalone O-methyloxime] | 31.7%
C=CCN1C2CC(=NOC)C1(C)Cc1c(O)c3c(c(O)c12)C(=O)c1c(OC)cccc1C3=O (stereo not drawn) [Compound 1c, 8-N-allylanthrazalone O-methyl-oxime] | 36.0%
CON=C1CC2c3c(O)c4c(c(O)c3CC1(C)N2Cc1ccc(OC)c(OC)c1)C(=O)c1cccc(OC)c1C4=O (stereo not drawn) [Compound 1e, 8-N-(3.4-dimethoxybenzyl)anthrazalone O-methyloxime] | 26.2%
CCON=C1CC2NC1(C)Cc1c(O)c3c(c(O)c12)C(=O)c1c(OC)cccc1C3=O (single isomer, unassigned) [lac-I, Anthrazalone O-ethyloxime] | 54.2%
COc1ccc(CN2C3CC(=NO)C2(C)Cc2c(O)c4c(c(O)c23)C(=O)c2c(OC)cccc2C4=O)cc1OC (stereo not drawn) [Compound 1a, 8-N-(3,4-dimethoxybenzyl) anthrazalone oxime] | 22.9%
